Measurements as given in patent US6461997B1, “Triazole sulfones having herbicidal activity” (Monsanto Technology LLC, priority 1999, dated 2002).

Columns and labels:
[1] = system: VERPE (creeping speedwell); assay: Pre-plant incorporated (PPI) herbicidal activity, cool season; assay type: in vivo, Veronica persicaria; conditions: for PPI activity GR80, VERPE: pre-plant incorporated, lowest tested rate with 80% or greater inhibition, about 14 days; for Percent inhibition VERPE: weed, PPI application
Procedure, shortened: (§1)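 Seeds were sown on compacted topsoil and covered with soil that had been sprayed with compound in organic solvent and mixed through. Pots got 0.64 cm overhead irrigation, then greenhouse at 30/21 °C (warm-season species) or 18/13 °C (cool-season species) day/night. Percent inhibition versus untreated plants was scored about 14 days after planting.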

[2] = system: CIRAR (canada thistle (seedling)); assay: Pre-plant incorporated (PPI) herbicidal activity, warm season; assay type: in vivo, Cirsium arvense; conditions: GR80 = lowest tested rate with 80% or greater inhibition, approx. 14 days after treating, 30/21° C.
Procedure, shortened: as §1

KCHSC (kochia) [3] = assay: Pre-emergence herbicidal activity, cool season; assay type: in vivo, Kochia scoparia; conditions: lowest tested rate with 80% or greater inhibition; rates 300, 100, 30, 10 g/ha; about 14 days
Protocol: Tables 5 to 8 summarize results of tests conducted as described below to determine the pre-emergence herbicidal activity, in the form of a GR80 value, of illustrative compounds of this invention. […] Compounds of the invention were typically applied at rates of 300, 100, 30, and 10 g/ha. Where herbicidal activity was evident but 80% inhibition was not achieved at the highest rate tested, an asterisk (*) is shown in the following tables.
The pre-emergence tests were conducted by the following procedure. Topsoil was sieved to pass through a 1.27 cm screen. Fertilizer was added to the topsoil and the mixture was then sterilized by heating. The topsoil mixture was placed in a pot and compacted to a depth of 1.0 to 1.25 cm from the top of the pot. Seeds of each of several monocotyledonous and dicotyledonous annual plant species were placed on top of the soil. Additional soil was subsequently placed over the seeds to level-fill the pot. A known amount of each test compound dissolved or suspended in an appropriate organic solvent was diluted with a 50:50 mix of acetone and water and applied to the surface of the soil. After treatment the plants were placed in a greenhouse where they received 0.64 cm of overhead irrigation. All subsequent watering consisted of a light overhead mist and/or subirrigation as needed for germination and growth. Tables 5 and 6 below relate to warm season plant species which were placed after pre-emergence treatment in a greenhouse with a 30/21° C. day/night temperature regime. Tables 7 and 8 below relates to cool season plant species placed after pre-emergence treatment in a greenhouse or growth chamber with an 18/13° C. day/night temperature regime.
Approximately 14 days after planting and treating, the plants were observed and herbicidal efficacy recorded as percent inhibition by comparison with untreated plants.
The plant species usually regarded as weeds which were utilized in the tests are identified in the tables below according to the following legend, in which “d” indicates a dicotyledonous species and “m” a monocotyledonous species. All monocotyledonous species included in the tests herein are grasses.

[4] = system: AGSST (creeping bentgrass); assay: Pre-emergence herbicidal activity, cool season; assay type: in vivo, Agrostis stolonifera; conditions: GR80 = lowest tested rate (300, 100, 30, 10 g/ha) with 80% or greater inhibition; approx. 14 days after treating; 18/13° C.
Procedure, shortened: (§2)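 Seeds sown in sterilised fertilised topsoil received surface-applied compound in 50:50 acetone/water, typically at 300, 100, 30 and 10 g/ha, then greenhouse-grown at 30/21° C (warm-season species) or 18/13° C (cool-season species). Percent inhibition versus untreated plants was scored at about 14 days, giving GR80; an asterisk marks activity short of 80% at the top rate.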

[5] = system: LAMPU (purple deadnettle); assay: Pre-plant incorporated (PPI) herbicidal activity, cool season; assay type: in vivo, Lamium purpureum; conditions: for PPI activity GR80, LAMPU: pre-plant incorporated, lowest tested rate with 80% or greater inhibition, about 14 days
Procedure, shortened: as §1

[6] = system: GALAP (catchweed bedstraw); assay: as above; assay type: in vivo, Galium aparine; conditions: for PPI activity GR80, GALAP: pre-plant incorporated, lowest tested rate with 80% or greater inhibition, about 14 days
Procedure, shortened: as §1

KCHSC (kochia) [7] = assay: as above; assay type: in vivo, Kochia scoparia; conditions: for PPI activity GR80, KCHSC: pre-plant incorporated, lowest tested rate with 80% or greater inhibition, about 14 days; for Percent inhibition KCHSC: weed, PPI application
Procedure, shortened: as §1

LOLMG (annual ryegrass) = assay: Pre-emergence herbicidal activity, cool season; assay type: in vivo, Lolium multiflorum; conditions: GR80 = lowest tested rate (300, 100, 30, 10 g/ha) with 80% or greater inhibition; approx. 14 days after treating; 18/13° C.
Procedure, shortened: as §2

SETVI (green foxtail) = assay: Pre-plant incorporated (PPI) herbicidal activity, cool season; assay type: in vivo, Setaria viridis; conditions: for PPI activity GR80, SETVI: pre-plant incorporated, lowest tested rate with 80% or greater inhibition, about 14 days
Procedure, shortened: as §1

AMARE (redroot pigweed) = assay: Pre-emergence herbicidal activity, warm season; assay type: in vivo, Amaranthus retroflexus; conditions: GR80 = lowest tested rate (300, 100, 30, 10 g/ha) with 80% or greater inhibition; approx. 14 days after treating; 30/21° C.
Procedure, shortened: as §2

ABUTH (velvetleaf) [8] = assay: Pre-emergence herbicidal activity, warm season; assay type: in vivo, Abutilon theophrasti; conditions: GR80 = lowest tested rate (300, 100, 30, 10 g/ha) with 80% or greater inhibition; approx. 14 days after treating; 30/21° C.
Procedure, shortened: as §2

ABUTH (velvetleaf) [9] = assay: Pre-plant incorporated (PPI) herbicidal activity, warm season; assay type: in vivo, Abutilon theophrasti; conditions: for PPI activity (GR80) ABUTH: pre-plant incorporated, GR80 = lowest tested rate with 80% or greater inhibition, approx. 14 days after treating, 30/21° C.
Procedure, shortened: as §1

DATST (jimsonweed) = assay: Pre-emergence herbicidal activity, warm season; assay type: in vivo, Datura stramonium; conditions: GR80 = lowest tested rate (300, 100, 30, 10 g/ha) with 80% or greater inhibition; approx. 14 days after treating; 30/21° C.
Procedure, shortened: as §2

[10] = weed, PPI application, 100 g/ha
[11] = weed, PPI application, 300 g/ha
[12] = weed, PPI application, 900 g/ha

CCN(CC)C(=O)n1cnc(S(=O)(=O)C(F)(F)C(=O)c2ccccc2)n1 [Example 6]
PPI activity GR80, VERPE [1]: 100 g/ha | PPI activity (GR80) CIRAR [2]: 100 g/ha | Pre-emergence activity GR80, KCHSC (KCHSC (kochia) [3]): 300 g/ha | Pre-emergence activity (GR80) AGSST [4]: 100 g/ha | PPI activity GR80, LAMPU [5]: 300 g/ha | PPI activity GR80, GALAP [6]: 100 g/ha | PPI activity GR80, KCHSC (KCHSC (kochia) [7]): 300 g/ha | Pre-emergence activity (GR80) LOLMG (LOLMG (annual ryegrass)): 300 g/ha | PPI activity GR80, SETVI (SETVI (green foxtail)): 300 g/ha

CCSC(F)(F)S(=O)(=O)c1ncn(C(=O)N(CC)CC)n1 [Example 8, 1-(N,N-diethylcarbamoyl)-3-[difluoro(ethylthio)methylsulfonyl]-1,2,4-triazole]
PPI activity GR80, VERPE [1]: 100 g/ha | PPI activity (GR80) CIRAR [2]: 100 g/ha | Pre-emergence activity GR80, KCHSC (KCHSC (kochia) [3]): [empty] | Pre-emergence activity (GR80) AGSST [4]: 30 g/ha | inhibition at 30 g/ha ([5]; Lamium purpureum, weed, PPI application, 30 g/ha, read-out: Percent inhibition LAMPU): 80% | inhibition at 100 g/ha ([5]; Lamium purpureum, weed, PPI application, 100 g/ha, read-out: Percent inhibition LAMPU): 100% | inhibition at 300 g/ha ([5]; Lamium purpureum, weed, PPI application, 300 g/ha, read-out: Percent inhibition LAMPU): 90% | inhibition at 900 g/ha ([5]; Lamium purpureum, weed, PPI application, 900 g/ha, read-out: Percent inhibition LAMPU): 100% | PPI activity GR80, LAMPU [5]: 100 g/ha | inhibition at 30 g/ha ([6]; Galium aparine, weed, PPI application, 30 g/ha, read-out: Percent inhibition GALAP): 0% | inhibition at 100 g/ha ([6]; Galium aparine, weed, PPI application, 100 g/ha, read-out: Percent inhibition GALAP): 100% | inhibition at 300 g/ha ([6]; Galium aparine, weed, PPI application, 300 g/ha, read-out: Percent inhibition GALAP): 100% | inhibition at 900 g/ha ([6]; Galium aparine, weed, PPI application, 900 g/ha, read-out: Percent inhibition GALAP): 100% | PPI activity GR80, GALAP [6]: 100 g/ha | Pre-emergence activity (GR80) AMARE (AMARE (redroot pigweed)): 100 g/ha | PPI activity GR80, KCHSC (KCHSC (kochia) [7]): 100 g/ha | Pre-emergence activity (GR80) ABUTH (ABUTH (velvetleaf) [8]): 300 g/ha | inhibition at 30 g/ha (ABUTH (velvetleaf) [9]; Abutilon theophrasti, PPI application, 30 g/ha, read-out: Percent inhibition ABUTH): 0% | inhibition at 100 g/ha (ABUTH (velvetleaf) [9]; Abutilon theophrasti, PPI application, 100 g/ha, read-out: Percent inhibition ABUTH): 10% | inhibition at 300 g/ha (ABUTH (velvetleaf) [9]; Abutilon theophrasti, PPI application, 300 g/ha, read-out: Percent inhibition ABUTH): 20% | inhibition at 900 g/ha (ABUTH (velvetleaf) [9]; Abutilon theophrasti, PPI application, 900 g/ha, read-out: Percent inhibition ABUTH): 100% | PPI activity (GR80) ABUTH (ABUTH (velvetleaf) [9]): 300 g/ha | inhibition at 30 g/ha (SETVI (green foxtail); Setaria viridis, weed, PPI application, 30 g/ha, read-out: Percent inhibition SETVI): 100% | inhibition at 100 g/ha (SETVI (green foxtail); Setaria viridis, weed, PPI application, 100 g/ha, read-out: Percent inhibition SETVI): 100% | inhibition at 300 g/ha (SETVI (green foxtail); Setaria viridis, weed, PPI application, 300 g/ha, read-out: Percent inhibition SETVI): 100% | inhibition at 900 g/ha (SETVI (green foxtail); Setaria viridis, weed, PPI application, 900 g/ha, read-out: Percent inhibition SETVI): 100% | PPI activity GR80, SETVI (SETVI (green foxtail)): 30 g/ha | Pre-emergence activity (GR80) DATST (DATST (jimsonweed)): 300 g/ha

C=C(CC(F)(F)S(=O)(=O)c1ncn(C(=O)N(CC)CC)n1)C[Si](C)(C)C [Example 20]
PPI activity GR80, VERPE [1]: 30 g/ha | Percent inhibition VERPE ([1]; 10 g/ha): 0% | Percent inhibition VERPE ([1]; 30 g/ha): 90% | Percent inhibition VERPE ([1]; 100 g/ha): 50% | Percent inhibition VERPE ([1]; 300 g/ha): 90% | Percent inhibition VERPE ([1]; 900 g/ha): 95% | PPI activity (GR80) CIRAR [2]: 100 g/ha | Pre-emergence activity GR80, KCHSC (KCHSC (kochia) [3]): [empty] | Pre-emergence activity (GR80) AGSST [4]: 300 g/ha | PPI activity GR80, LAMPU [5]: 100 g/ha | Percent inhibition LAMPU ([5]; weed, PPI application, 10 g/ha): 90% | Percent inhibition LAMPU ([5]; weed, PPI application, 30 g/ha): 60% | Percent inhibition LAMPU [5, 10]: 80% | Percent inhibition LAMPU [5, 11]: 100% | Percent inhibition LAMPU [5, 12]: 95% | PPI activity GR80, GALAP [6]: [empty] | Percent inhibition GALAP ([6]; weed, PPI application, 10 g/ha): 0% | Percent inhibition GALAP ([6]; weed, PPI application, 30 g/ha): 0% | Percent inhibition GALAP [6, 10]: 50% | Percent inhibition GALAP [6, 11]: 90% | Percent inhibition GALAP [6, 12]: 100% | PPI activity GR80, KCHSC (KCHSC (kochia) [7]): [empty] | Percent inhibition KCHSC (KCHSC (kochia) [7]; 10 g/ha): 50% | Percent inhibition KCHSC (KCHSC (kochia) [7]; 30 g/ha): 50% | Percent inhibition KCHSC (KCHSC (kochia) [7]; 100 g/ha): 100% | Percent inhibition KCHSC (KCHSC (kochia) [7]; 300 g/ha): 100% | Percent inhibition KCHSC (KCHSC (kochia) [7]; 900 g/ha): 100% | Pre-emergence activity (GR80) ABUTH (ABUTH (velvetleaf) [8]): 300 g/ha | Percent inhibition ABUTH (ABUTH (velvetleaf) [9]; PPI application, 10 g/ha): 0% | Percent inhibition ABUTH (ABUTH (velvetleaf) [9]; PPI application, 30 g/ha): 0% | Percent inhibition ABUTH (ABUTH (velvetleaf) [9]; PPI application, 100 g/ha): 0% | Percent inhibition ABUTH (ABUTH (velvetleaf) [9]; PPI application, 300 g/ha): 30% | Percent inhibition ABUTH (ABUTH (velvetleaf) [9]; PPI application, 900 g/ha): 80% | PPI activity (GR80) ABUTH (ABUTH (velvetleaf) [9]): 300 g/ha | PPI activity GR80, SETVI (SETVI (green foxtail)): 30 g/ha | Percent inhibition SETVI (SETVI (green foxtail); weed, PPI application, 10 g/ha): 0% | Percent inhibition SETVI (SETVI (green foxtail); weed, PPI application, 30 g/ha): 70% | Percent inhibition SETVI (SETVI (green foxtail); [10]): 40% | Percent inhibition SETVI (SETVI (green foxtail); [11]): 100% | Percent inhibition SETVI (SETVI (green foxtail); [12]): 100%
